Results: the supplement of paper PMC10307832

Key:
Assay in all cases: relative viability (nuclei count vs DMSO), 5 days (fraction); higher = more cells survive
201T = test system: 201T
Summary of the method: (§1)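 Each reported value is a median over duplicate plates. It expresses relative viability: treated-well nuclei count divided by vehicle-well nuclei count. Lung cancer cell lines in 1536-well plates were dosed by pin tool a day after seeding, alone with one drug or with a fixed anchor-drug dose plus five library-drug doses (not always all listed) in √10 steps, and nuclei were counted after 5 days.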

A-427 = test system: A-427
Summary of the method: as §1

BEN = test system: BEN
Summary of the method: as §1

COR-L23 = test system: COR-L23
Summary of the method: as §1

EKVX = test system: EKVX
Summary of the method: as §1

HARA = test system: HARA
Summary of the method: as §1

HCC-15 = test system: HCC-15
Summary of the method: as §1

HCC-827 = test system: HCC-827
Summary of the method: as §1

NCI-H1437 = test system: NCI-H1437
Summary of the method: as §1

NCI-H1650 = test system: NCI-H1650
Summary of the method: as §1

NCI-H1792 = test system: NCI-H1792
Summary of the method: as §1

NCI-H1975 = test system: NCI-H1975
Summary of the method: as §1

NCI-H2342 = test system: NCI-H2342
Summary of the method: as §1

NCI-H23 = test system: NCI-H23
Summary of the method: as §1

NCI-H358 = test system: NCI-H358
Summary of the method: as §1

NCI-H441 = test system: NCI-H441
Summary of the method: as §1

NCI-H596 = test system: NCI-H596
Summary of the method: as §1

NCI-H650 = test system: NCI-H650
Summary of the method: as §1

NCI-H838 = test system: NCI-H838
Summary of the method: as §1

SK-MES-1 = test system: SK-MES-1
Summary of the method: as §1

SW 900 = test system: SW 900
Summary of the method: as §1

Cc1sc2c(c1C)C(c1ccc(Cl)cc1)=N[C@@H](CC(=O)OC(C)(C)C)c1nnc(C)n1-2 [JQ1] + Cc1nc(Nc2ncc(C(=O)Nc3c(C)cccc3Cl)s2)cc(N2CCN(CCO)CC2)n1 [Dasatinib] (partner 0.075 µM)
relative viability (201T; first compound 0.04 µM): 0.606 | relative viability (201T; first compound 0.1265 µM): 0.428 | relative viability (201T; first compound 0.4 µM): 0.508 | relative viability (201T; first compound 1.265 µM): 0.491 | relative viability (201T; first compound 4 µM): 0.372 | relative viability (A-427; first compound 0.04 µM): 0.759 | relative viability (A-427; first compound 0.1265 µM): 0.592 | relative viability (A-427; first compound 0.4 µM): 0.696 | relative viability (A-427; first compound 1.265 µM): 0.696 | relative viability (A-427; first compound 4 µM): 0.529 | relative viability (BEN; first compound 0.04 µM): 0.302 | relative viability (BEN; first compound 0.1265 µM): 0.307 | relative viability (BEN; first compound 0.4 µM): 0.309 | relative viability (BEN; first compound 1.265 µM): 0.274 | relative viability (BEN; first compound 4 µM): 0.217 | relative viability (COR-L23; first compound 0.04 µM): 0.507 | relative viability (COR-L23; first compound 0.1265 µM): 0.351 | relative viability (COR-L23; first compound 0.4 µM): 0.516 | relative viability (COR-L23; first compound 1.265 µM): 0.279 | relative viability (COR-L23; first compound 4 µM): 0.256 | relative viability (EKVX; first compound 0.04 µM): 0.517 | relative viability (EKVX; first compound 0.4 µM): 0.473 | relative viability (EKVX; first compound 1.265 µM): 0.45 | relative viability (EKVX; first compound 4 µM): 0.417 | relative viability (HARA; first compound 0.04 µM): 0.207 | relative viability (HARA; first compound 0.1265 µM): 0.242 | relative viability (HARA; first compound 0.4 µM): 0.309 | relative viability (HARA; first compound 1.265 µM): 0.236 | relative viability (HARA; first compound 4 µM): 0.247 | relative viability (HCC-15; first compound 0.04 µM): 0.524 | relative viability (HCC-15; first compound 0.4 µM): 0.5 | relative viability (HCC-15; first compound 1.265 µM): 0.339 | relative viability (HCC-15; first compound 4 µM): 0.227 | relative viability (HCC-827; first compound 0.04 µM): 0.371 | relative viability (HCC-827; first compound 0.4 µM): 0.227 | relative viability (HCC-827; first compound 1.265 µM): 0.438 | relative viability (HCC-827; first compound 4 µM): 0.421 | relative viability (NCI-H1437; first compound 0.04 µM): 0.394 | relative viability (NCI-H1437; first compound 0.1265 µM): 0.365 | relative viability (NCI-H1437; first compound 0.4 µM): 0.263 | relative viability (NCI-H1437; first compound 1.265 µM): 0.217 | relative viability (NCI-H1437; first compound 4 µM): 0.244 | relative viability (NCI-H1650; first compound 0.04 µM): 0.313 | relative viability (NCI-H1650; first compound 0.1265 µM): 0.272 | relative viability (NCI-H1650; first compound 0.4 µM): 0.201 | relative viability (NCI-H1650; first compound 1.265 µM): 0.134 | relative viability (NCI-H1650; first compound 4 µM): 0.143 | relative viability (NCI-H1792; first compound 0.04 µM): 0.837 | relative viability (NCI-H1792; first compound 0.4 µM): 0.839 | relative viability (NCI-H1792; first compound 1.265 µM): 0.579 | relative viability (NCI-H1792; first compound 4 µM): 0.5 | relative viability (NCI-H1975; first compound 0.04 µM): 0.414 | relative viability (NCI-H1975; first compound 0.1265 µM): 0.316 | relative viability (NCI-H1975; first compound 0.4 µM): 0.305 | relative viability (NCI-H1975; first compound 1.265 µM): 0.227 | relative viability (NCI-H1975; first compound 4 µM): 0.241 | relative viability (NCI-H2342; first compound 0.04 µM): 0.315 | relative viability (NCI-H2342; first compound 0.1265 µM): 0.304 | relative viability (NCI-H2342; first compound 0.4 µM): 0.328 | relative viability (NCI-H2342; first compound 1.265 µM): 0.286 | relative viability (NCI-H2342; first compound 4 µM): 0.299 | relative viability (NCI-H23; first compound 0.04 µM): 0.666 | relative viability (NCI-H23; first compound 0.1265 µM): 0.656 | relative viability (NCI-H23; first compound 0.4 µM): 0.579 | relative viability (NCI-H23; first compound 1.265 µM): 0.275 | relative viability (NCI-H23; first compound 4 µM): 0.344 | relative viability (NCI-H358; first compound 0.04 µM): 0.182 | relative viability (NCI-H358; first compound 0.1265 µM): 0.262 | relative viability (NCI-H358; first compound 0.4 µM): 0.279 | relative viability (NCI-H358; first compound 1.265 µM): 0.183 | relative viability (NCI-H358; first compound 4 µM): 0.209 | relative viability (NCI-H441; first compound 0.04 µM): 0.558 | relative viability (NCI-H441; first compound 0.1265 µM): 0.572 | relative viability (NCI-H441; first compound 0.4 µM): 0.634 | relative viability (NCI-H441; first compound 1.265 µM): 0.273 | relative viability (NCI-H441; first compound 4 µM): 0.209 | relative viability (NCI-H596; first compound 0.04 µM): 0.671 | relative viability (NCI-H596; first compound 0.1265 µM): 0.456 | relative viability (NCI-H596; first compound 0.4 µM): 0.559 | relative viability (NCI-H596; first compound 1.265 µM): 0.281 | relative viability (NCI-H596; first compound 4 µM): 0.29 | relative viability (NCI-H650; first compound 0.04 µM): 0.462 | relative viability (NCI-H650; first compound 0.1265 µM): 0.301 | relative viability (NCI-H650; first compound 0.4 µM): 0.328 | relative viability (NCI-H650; first compound 1.265 µM): 0.277 | relative viability (NCI-H650; first compound 4 µM): 0.244 | relative viability (NCI-H838; first compound 0.04 µM): 0.294 | relative viability (NCI-H838; first compound 0.1265 µM): 0.217 | relative viability (NCI-H838; first compound 0.4 µM): 0.264 | relative viability (NCI-H838; first compound 1.265 µM): 0.229 | relative viability (NCI-H838; first compound 4 µM): 0.201 | relative viability (SK-MES-1; first compound 0.04 µM): 0.338 | relative viability (SK-MES-1; first compound 0.1265 µM): 0.273 | relative viability (SK-MES-1; first compound 0.4 µM): 0.311 | relative viability (SK-MES-1; first compound 1.265 µM): 0.168 | relative viability (SK-MES-1; first compound 4 µM): 0.171 | relative viability (SW 900; first compound 0.04 µM): 0.521 | relative viability (SW 900; first compound 0.1265 µM): 0.456 | relative viability (SW 900; first compound 0.4 µM): 0.298 | relative viability (SW 900; first compound 1.265 µM): 0.193 | relative viability (SW 900; first compound 4 µM): 0.135
